Results published in patent US10864150B2, “Hair treatment process” (KAO CORPORATION, priority 2013, dated 2020).

Experiment: Test Example 1: impact of tension on hair straightening
Details: then shampooed
Experimental: Three samples A-C of frizzy hair (bundles of 2 g Indian frizz hair, untreated, obtained from IHIP, International Hair Importers & Products, NY; see FIG. 1A) were shampooed, rinsed off with water and dried at ambient temperature. Then, an aqueous solution of 10 wt. % glyoxylic acid (pH 1.5, adjusted with NaOH) was applied to the samples A-C at a ratio of hair to solution of 1:1, uniformly distributed with a comb and left on the hair for 15 minutes at 40° C. Then, the samples were dried with a hair drier at a temperature of 90-100° C. for 10 minutes. The temperature was measured by holding an infrared thermometer at a distance of about 20 to 40 cm from the hair and scanning the area where the air stream comes into contact with the hair. The average of at least ten readings is then taken as the temperature. Samples A and B (Reference) were dried in the absence of mechanical tension and serve as reference samples. To sample C, mechanical tension was applied by fixing one end and holding the sample in an elongated state using a round brush. Reference sample B was subsequently treated with a straightening iron at a temperature of 230° C. The samples A-C were rinsed off with water, shampooed, combed and dried at ambient temperature.

Compound: O=CC(=O)O [glyoxylic acid]
- straightening of hair after treatment (sample A (reference): 10 wt. % aqueous solution pH 1.5, dried with hair drier 90-100° C. in relaxed state, no mechanical tension): does not lead to a substantial straightening
- straightening of hair after treatment (sample B (reference): 10 wt. % aqueous solution pH 1.5, dried without tension, then straightening iron at 230° C.): straightening of the hair
- appearance of hair after treatment (straightening, frizz) (sample C: 10 wt. % aqueous solution pH 1.5, 15 min at 40° C., dried with hair drier 90-100° C. for 10 min under mechanical tension (round brush), no iron, versus sample A): remarkable straightened appearance and reduced frizz
